# In ChEMBL document CHEMBL3885861, “Open TG-GATES”:
# Species on record: Rattus norvegicus
# Experiment: Open TG-GATES - Regimen: Single
# Format: toxicity, organism-based, Sprague-Dawley
# Set-up: regimen Single, gender Male, age 6 weeks
# Conditions: in vivo, po, 150 mg/kg, route gavage, dose level Middle; for APTT / Bas / Eos / Fbg / Hb / Ht / Lym / MCH / MCHC / MCV / Mono / Neu / PT / Plat / RBC / Ret / WBC: tissue Blood; for KIDNEY_L / KIDNEY_R / KIDNEY_TOTAL: tissue Kidney; for LIVER: tissue Liver; for A/G / ALP / ALT / AST / BUN / CRE / Ca / Cl / DBIL / GLC / IP / K / LDH / Na / PL / RALB / TBIL / TC / TG / TP / gamma-GTP: tissue Plasma
compound,measurement,setting,value
CN1C(=O)CCS(=O)(=O)C1c1ccc(Cl)cc1 (configuration not stated) [CHLORMEZANONE],TERMINAL_BW,3 h,230 g
same,APTT,3 h,15.9 s
same,Bas,3 h,0%
same,Eos,3 h,1%
same,Fbg,3 h,314.4 mg/dL
same,Hb,3 h,13.5 g/dL
same,Ht,3 h,39.4%
same,Lym,3 h,77%
same,MCH,3 h,21.7 pg
same,MCHC,3 h,34.1%
same,MCV,3 h,63.6 fL
same,Mono,3 h,2.8%
same,Neu,3 h,18.4%
same,PT,3 h,13.1 s
same,Plat,3 h,123.1 x10_4/uL
same,RBC,3 h,620.2 x10_4/ul
same,Ret,3 h,7.9%
same,WBC,3 h,84.3 x10_2/uL
same,KIDNEY_L,3 h,1 g
same,KIDNEY_R,3 h,1 g
same,KIDNEY_TOTAL,3 h,1.9 g
same,LIVER,3 h,10.6 g
same,A/G,3 h,0.9
same,ALP,3 h,1400.8 IU/L
same,ALT,3 h,49.6 IU/L
same,AST,3 h,75.6 IU/L
same,BUN,3 h,11.6 mg/dL
same,CRE,3 h,0.2 mg/dL
same,Ca,3 h,11.6 mg/dL
same,Cl,3 h,104.2 meq/L
same,DBIL,3 h,0.018 mg/dL
same,GLC,3 h,182.2 mg/dL
same,IP,3 h,9.5 mg/dL
same,K,3 h,4.3 meq/L
same,LDH,3 h,56.8 IU/L
same,Na,3 h,140.6 meq/L
same,PL,3 h,157.6 mg/dL
same,RALB,3 h,2.6 g/dL
same,TBIL,3 h,0.034 mg/dL
same,TC,3 h,87 mg/dL
same,TG,3 h,95.6 mg/dL
same,TP,3 h,5.6 g/dL
same,gamma-GTP,3 h,1 IU/L
same,TERMINAL_BW,6 h,229.6 g
same,APTT,6 h,17.8 s
same,Bas,6 h,0%
same,Eos,6 h,0.6%
same,Fbg,6 h,295 mg/dL
same,Hb,6 h,13.8 g/dL
same,Ht,6 h,41.1%
same,Lym,6 h,77.8%
same,MCH,6 h,22.1 pg
same,MCHC,6 h,33.6%
same,MCV,6 h,65.8 fL
same,Mono,6 h,3.8%
same,Neu,6 h,16.8%
same,PT,6 h,13.6 s
same,Plat,6 h,119.1 x10_4/uL
same,RBC,6 h,624.4 x10_4/ul
same,Ret,6 h,8.5%
same,WBC,6 h,70.9 x10_2/uL
same,KIDNEY_L,6 h,1 g
same,KIDNEY_R,6 h,1 g
same,KIDNEY_TOTAL,6 h,2 g
same,LIVER,6 h,10.1 g
same,A/G,6 h,0.9
same,ALP,6 h,1441.2 IU/L
same,ALT,6 h,41.6 IU/L
same,AST,6 h,71.8 IU/L
same,BUN,6 h,9.2 mg/dL
same,CRE,6 h,0.2 mg/dL
same,Ca,6 h,11.7 mg/dL
same,Cl,6 h,105.6 meq/L
same,DBIL,6 h,0.014 mg/dL
same,GLC,6 h,184.2 mg/dL
same,IP,6 h,11.2 mg/dL
same,K,6 h,4.5 meq/L
same,LDH,6 h,61.4 IU/L
same,Na,6 h,142.8 meq/L
same,PL,6 h,152 mg/dL
same,RALB,6 h,2.7 g/dL
same,TBIL,6 h,0.038 mg/dL
same,TC,6 h,76 mg/dL
same,TG,6 h,57.2 mg/dL
same,TP,6 h,5.7 g/dL
same,gamma-GTP,6 h,1.6 IU/L
same,TERMINAL_BW,9 h,228.1 g
same,APTT,9 h,14 s
same,Bas,9 h,0%
same,Eos,9 h,0.6%
same,Fbg,9 h,329.4 mg/dL
same,Hb,9 h,13.1 g/dL
same,Ht,9 h,38.8%
same,Lym,9 h,74.2%
same,MCH,9 h,21.8 pg
same,MCHC,9 h,33.8%
same,MCV,9 h,64.4 fL
same,Mono,9 h,2.8%
same,Neu,9 h,21.2%
same,PT,9 h,13.3 s
same,Plat,9 h,118.2 x10_4/uL
same,RBC,9 h,603 x10_4/ul
same,Ret,9 h,8%
same,WBC,9 h,89.8 x10_2/uL
same,KIDNEY_L,9 h,1 g
same,KIDNEY_R,9 h,1 g
same,KIDNEY_TOTAL,9 h,1.9 g
same,LIVER,9 h,9 g
same,A/G,9 h,0.9
same,ALP,9 h,1520.8 IU/L
same,ALT,9 h,38.6 IU/L
same,AST,9 h,70.6 IU/L
same,BUN,9 h,9.8 mg/dL
same,CRE,9 h,0.2 mg/dL
same,Ca,9 h,11.3 mg/dL
same,Cl,9 h,105 meq/L
same,DBIL,9 h,0.02 mg/dL
same,GLC,9 h,194.6 mg/dL
same,IP,9 h,11.2 mg/dL
same,K,9 h,4 meq/L
same,LDH,9 h,55.8 IU/L
same,Na,9 h,142.8 meq/L
same,PL,9 h,150.2 mg/dL
same,RALB,9 h,2.6 g/dL
same,TBIL,9 h,0.04 mg/dL
same,TC,9 h,78.4 mg/dL
same,TG,9 h,67.2 mg/dL
same,TP,9 h,5.5 g/dL
same,gamma-GTP,9 h,1.4 IU/L
same,TERMINAL_BW,24 h,227.1 g
same,APTT,24 h,17.4 s
same,Bas,24 h,0%
same,Eos,24 h,1%
same,Fbg,24 h,271.6 mg/dL
same,Hb,24 h,13.4 g/dL
same,Ht,24 h,39.4%
same,Lym,24 h,77%
same,MCH,24 h,21.9 pg
same,MCHC,24 h,34.1%
same,MCV,24 h,64.2 fL
same,Mono,24 h,3.4%
same,Neu,24 h,17.8%
same,PT,24 h,13.3 s
same,Plat,24 h,123.4 x10_4/uL
same,RBC,24 h,615.2 x10_4/ul
same,Ret,24 h,7.5%
same,WBC,24 h,94.1 x10_2/uL
same,KIDNEY_L,24 h,1 g
same,KIDNEY_R,24 h,1 g
same,KIDNEY_TOTAL,24 h,2 g
same,LIVER,24 h,10.9 g
same,A/G,24 h,0.9
same,ALP,24 h,1673.6 IU/L
same,ALT,24 h,50.4 IU/L
same,AST,24 h,82.4 IU/L
same,BUN,24 h,15.6 mg/dL
same,CRE,24 h,0.2 mg/dL
same,Ca,24 h,11.4 mg/dL
same,Cl,24 h,105.4 meq/L
same,DBIL,24 h,0.022 mg/dL
same,GLC,24 h,192 mg/dL
same,IP,24 h,7.6 mg/dL
same,K,24 h,4.2 meq/L
same,LDH,24 h,69.4 IU/L
same,Na,24 h,142 meq/L
same,PL,24 h,138.4 mg/dL
same,RALB,24 h,2.6 g/dL
same,TBIL,24 h,0.028 mg/dL
same,TC,24 h,79.8 mg/dL
same,TG,24 h,119 mg/dL
same,TP,24 h,5.6 g/dL
same,gamma-GTP,24 h,1 IU/L
